Our source for the TGI and GI50 values is PubChem BioAssay (NCI).

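Five compound concentrations were applied to cells in 96-well plates for 48 hours; endpoints were derived by simple linear interpolation of the resulting dose-response curve. GI50 = concentration required for 50% inhibition of growth. TGI is the concentration that stops growth completely.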 Bounds are passed on as bounds.

Among the test systems are UACC-257 melanoma; NCI/ADR-RES ovarian; HOP-62 NSCLC; M14 melanoma; SK-MEL-28 melanoma; BT-549 breast; MDA-MB-231 breast; HT29 colon; SR leukemia; SNB-75 CNS.
Assay in all cases: inhibition of tumour cell growth, NCI panel, 48 h

Regarding `O=C(O)c1ccc(Oc2nc3ccccc3s2)cc1`, the TGI in the experiment on UACC-257 melanoma, with NCI/ADR-RES ovarian, with HOP-62 NSCLC, in the experiment on M14 melanoma, in the experiment with SK-MEL-28 melanoma and in the experiment with BT-549 breast was greater than 100 µM in each case. For the same compound, the TGI in the experiment with MDA-MB-231 breast, in the experiment on HT29 colon and with SR leukemia was greater than 100 µM throughout.
As for `c1ccc(-c2cn(-c3ccccc3)c(-c3ccccc3)n2)cc1`, the GI50 was 14 µM with SNB-75 CNS; 13.4 µM in the experiment on UACC-257 melanoma; 19.6 µM in the experiment on NCI/ADR-RES ovarian; 2.72 µM with HOP-62 NSCLC; 11 µM with M14 melanoma; 4.75 µM in the experiment with SK-MEL-28 melanoma. Besides, the GI50 in the experiment with BT-549 breast is 16 µM; with MDA-MB-231 breast it was 18.4 µM; with HT29 colon, 4.79 µM. In addition, the TGI was 27.7 µM in the experiment on SNB-75 CNS; 26.1 µM in the experiment on UACC-257 melanoma; 44.9 µM with NCI/ADR-RES ovarian; 7.88 µM in the experiment on HOP-62 NSCLC; 23.8 µM with M14 melanoma; 16.5 µM in the experiment on SK-MEL-28 melanoma. The TGI is 30.5 µM with BT-549 breast, 36.5 µM in the experiment with MDA-MB-231 breast and 20.4 µM in the experiment on HT29 colon.
Take `CCOC(=O)[C@@H](C)C[C@H](Cc1ccccc1)NC(=O)c1csc([C@@H](C[C@H](C(C)C)N(C)C(=O)[C@@H](NC(=O)[C@H]2C[C@H](O)CCN2C)C(C)C)OC(C)=O)n1`: the GI50 with SNB-75 CNS was 0.00384 µM; in the experiment on UACC-257 melanoma, greater than 16.7 µM; in the experiment with NCI/ADR-RES ovarian, 2.67 µM; with HOP-62 NSCLC it was 0.0146 µM; in the experiment with BT-549 breast, 0.00283 µM; in the experiment with MDA-MB-231 breast, 0.00565 µM. Moreover, the GI50 with HT29 colon was 0.0023 µM; in the experiment with SR leukemia it was less than 0.00167 µM. In addition, the TGI was greater than 16.7 µM in the experiment on SNB-75 CNS; greater than 16.7 µM in the experiment with UACC-257 melanoma; greater than 16.7 µM in the experiment with NCI/ADR-RES ovarian; greater than 16.7 µM in the experiment with HOP-62 NSCLC; 0.0915 µM in the experiment with BT-549 breast; 3.24 µM in the experiment with MDA-MB-231 breast. The TGI in the experiment with HT29 colon and with SR leukemia was greater than 16.7 µM throughout.
In the case of `O=C(O)c1ccc(C(=O)O)c(C(=O)O)c1.[NH-]C1CCCCC1[NH-].[Pt+2]`, the GI50 with SNB-75 CNS was 18 µM; in the experiment on UACC-257 melanoma, 15.4 µM; with NCI/ADR-RES ovarian, 3.56 µM; with HOP-62 NSCLC, 11.7 µM; in the experiment on M14 melanoma, 9.61 µM; with SK-MEL-28 melanoma, 4.97 µM. In addition, the GI50 was 23.8 µM with BT-549 breast, 16.7 µM with MDA-MB-231 breast and 0.998 µM in the experiment on HT29 colon. The TGI with SNB-75 CNS was 78.9 µM; in the experiment with UACC-257 melanoma, 61.6 µM; in the experiment on NCI/ADR-RES ovarian, 60.5 µM; with HOP-62 NSCLC, greater than 74.4 µM; with M14 melanoma, 37.4 µM; in the experiment with SK-MEL-28 melanoma, 48.1 µM. For the same compound, the TGI in the experiment on BT-549 breast was 54.2 µM; in the experiment with MDA-MB-231 breast, greater than 73.6 µM; in the experiment on HT29 colon it was 54.9 µM.
Take `C/C(=N/NC(=S)N1CC2CCC(CC2)C1)c1cnccn1`: the TGI came to 7.02 µM in the experiment on SNB-75 CNS; 14.3 µM with UACC-257 melanoma; 0.054 µM with NCI/ADR-RES ovarian; 14.9 µM in the experiment on HOP-62 NSCLC; 1.85 µM in the experiment with M14 melanoma; 22.4 µM in the experiment on SK-MEL-28 melanoma. Besides, the TGI with BT-549 breast was determined as 16.7 µM; with MDA-MB-231 breast, 16.8 µM; in the experiment with HT29 colon, 12.2 µM.
Take `COc1cc2c(cc1OCCCCn1c(-c3cccs3)nc3ccccc31)N=C[C@@H]1CCCN1C2=O`: the GI50 was 1.22 µM in the experiment on SNB-75 CNS; 2.54 µM in the experiment on UACC-257 melanoma; 3.24 µM in the experiment with NCI/ADR-RES ovarian; 1.35 µM in the experiment with M14 melanoma; 1.53 µM with SK-MEL-28 melanoma; 0.417 µM in the experiment with BT-549 breast. For the same compound, the results for the GI50 in the experiment on MDA-MB-231 breast, with HT29 colon and in the experiment with SR leukemia were 1.39 µM, 1.97 µM and 0.45 µM, respectively. Further, the TGI turned out to be 2.54 µM in the experiment with SNB-75 CNS; 5.9 µM in the experiment on UACC-257 melanoma; 13.9 µM with NCI/ADR-RES ovarian; 2.8 µM in the experiment with M14 melanoma; 3.27 µM in the experiment with SK-MEL-28 melanoma; 1.2 µM with BT-549 breast. Moreover, the TGI was 5.22 µM with MDA-MB-231 breast, 14.6 µM with HT29 colon and greater than 100 µM with SR leukemia.
In the case of `NC(=O)CCc1ccccc1Oc1nccc(-c2c(-c3ccc(F)cc3)ncn2C2CCNCC2)n1`, the GI50 in the experiment with SNB-75 CNS, with NCI/ADR-RES ovarian, with HOP-62 NSCLC, with M14 melanoma, in the experiment with SK-MEL-28 melanoma and in the experiment on BT-549 breast was greater than 25 µM throughout. Also, the GI50 with MDA-MB-231 breast and in the experiment on HT29 colon was greater than 25 µM each time. Further, the TGI with SNB-75 CNS, in the experiment with NCI/ADR-RES ovarian, with HOP-62 NSCLC, in the experiment on M14 melanoma, in the experiment with SK-MEL-28 melanoma and with BT-549 breast was greater than 25 µM throughout. Besides, the TGI in the experiment with MDA-MB-231 breast and in the experiment on HT29 colon was greater than 25 µM in each case.
Turning to `CC1(C)OC2C(CO)OC(n3ccc(N)nc3=O)C2O1` (stereo not drawn), the TGI with UACC-257 melanoma, in the experiment with NCI/ADR-RES ovarian, in the experiment on HOP-62 NSCLC, with M14 melanoma, in the experiment with SK-MEL-28 melanoma and with BT-549 breast was greater than 100 µM throughout. Further, the TGI in the experiment with MDA-MB-231 breast and in the experiment on SR leukemia was greater than 100 µM in each case.
Regarding `Cc1ccc(NC(=O)c2nc(S(C)(=O)=O)oc2-c2ccc(F)cc2)cc1Nc1ccc2ncn(C)c(=O)c2c1`, the GI50 with SNB-75 CNS is 2.13 µM; with UACC-257 melanoma, 1.88 µM; in the experiment on NCI/ADR-RES ovarian, 3.14 µM; in the experiment on HOP-62 NSCLC it was 2.49 µM; in the experiment on M14 melanoma, 1.75 µM; in the experiment with SK-MEL-28 melanoma it was 1.74 µM. Also, the GI50 in the experiment on BT-549 breast is 1.48 µM; with MDA-MB-231 breast, 1.64 µM. For the same compound, the TGI in the experiment on SNB-75 CNS was 5.65 µM; in the experiment with UACC-257 melanoma, 3.72 µM; in the experiment with NCI/ADR-RES ovarian, 15.7 µM; with HOP-62 NSCLC, 7.11 µM; in the experiment on M14 melanoma, 3.72 µM; in the experiment with SK-MEL-28 melanoma, 3.4 µM. The TGI came to 2.86 µM in the experiment on BT-549 breast and 3.15 µM with MDA-MB-231 breast.
